Reference: patent US5280015A, “2-substituted adenosines and 2-substituted adenosine 5'-carboxamides” (priority 1990, dated 1994)

Assays:
[1] = tested on: striatal A2-adenosine receptors; test: Direct binding of 125I-PAPA-APEC to striatal A2-adenosine receptors in bovine brain; settings: HPLC peak B
[2] = target: striatal A2-adenosine receptors; settings: Barrington et al., 1989, cited from earlier work
A2-adenosine receptors = test: Competitive binding assay in bovine brain using 125I-PAPA-APEC (striatal membranes); settings: fluorescent probes; derivatives in general
Procedure: (§1) The filters were washed with three×3 ml aliquots of pH 7.2 buffer containing 50 mM HEPES, 10 mM Mg^+2, and 0.05% CHAPS. The filters were placed in polypropylene tubes and counted in a Packard gamma counter.

adenosine A2 receptors = target: T1, adenosine A2 receptors (Bos taurus, UniProt E1BKU0); test: FITC-APEC fluorescent binding (association and saturation) to bovine striatal membranes
T1 construct: Striatal tissues obtained from bovine brain; tissue Pel-Freeze Biologicals, Rogers, Ark; host or cells: bovine striatal tissue
Excerpt: Compounds useful in fluorescent binding assays of adenosine A2 receptors in striatal membranes may be used to screen new ligands for affinity at these receptors, thus contributing to the development of new drugs specific or selective to this receptor. […] The following is an example.
Striatal tissues obtained from bovine brain (Pel-Freeze, Biologicals, Rogers, Ark.) were homogenized in 10 volumes of 0.32M sucrose using a Teflon pestle and glass tube (6-7 passes). The homogenate was centrifuged (4° C.) at 579×g (2,000 rpm) for 10 minutes 4° C.). The initial pellet (P1) was discarded and supernatant recentrifuged at 4° C. (16,000 rpm) for 1 hour. The resultant pellet (P2) was resuspended in ice-cold distilled water using a Brinkman Polytron (setting 6-7, for 3 seconds) and centrifuged (4° C.) at 37,059×g for 1 hour. The distilled water supernatant was decanted and the pellet was resuspended in buffer (50 mM TrisHCl, pH 7.4 at 4° C.) and centrifuged a final time for 1 hour. Tissue homogenates were […] at -80° C. for 1-3 days until binding assays were performed. Adenosine deaminase, (Boehringer Mannheim Biochemicals, Indianapolis, Ind.) from calf intestine was included (10 μ/mg protein, specific activity=200μ/mg) in the incubation media to eliminate endogenous adenosine. Protein quantities were assessed by using the Pierce BCA Protein Assay Reagent (Rockford, Ill.). Protein quantities were ~300μg/assay tube.
Fluorescence intensity (counts per second, cps) was measured using a SPEX Fluorolog Model 1680 0.22-m Double Spectrometer with DM3000 software (SPEX Industries, Edison, N.J.). Excitation and emission spectra were determined by comparing FITC-APEC (Compound 18, 1 μM) to buffer ([…] containing […], pH 7.4 or 8.1 at room temperature) or tissue suspension equivalent in concentration to that used for fluorescent ligand binding experiments. Excitation and emission maxima for FITC-APEC were 492 and 516 nm, respectively.
Association studies of FITC-APEC were performed by incubating (room temperature) striatal membranes in polypropylene tubes containing buffer (pH 7.4) and FITC-APEC (50 nM) for 5-120 minutes. […]
Quantitation (see McCabe et al. Faseb J., Vol. 4, pp 2934-2945, 1990) of FITC-APEC binding was performed by generating a standard line relating fluorescence intensity (cps) emitted to known concentrations (0.5-1024 nM) of FITC-APEC, in buffer ("free" ligand) or tissue suspension.
Bound ligand concentrations (μM) were estimated using linear regression analysis and mole quantities of FITC-APEC bound/mg protein were subsequently determined.

A2 adenosine receptors [3] = target: T2, A2 adenosine receptors (Bos taurus, UniProt E1BKU0); test: Displacement of 125I-APNEA from bovine striatum A2 adenosine receptors; assay type: binding; parameters: bovine striatum A2 adenosine receptors; from tissue; host or cells: bovine striatum
Excerpt: FITC-APEC binding to bovine striatal membranes was saturable as illustrated by an isotherm representing bound ligand versus increasing concentrations of FITC-APEC (FIG. 1B).

A2 adenosine receptors [4] = target: T2, A2 adenosine receptors; test: Competitive binding assay in bovine brain using 125I-PAPA-APEC (striatal membranes); parameters: Bovine striatal membranes; from tissue; host or cells: bovine (calf) striatal membranes; settings: bovine striatum; 11, 12 and 14: apparent Ki; read-out: Ki, inhibition of binding of 125I-PAPA-APEC at A2-receptors
Procedure: as §1

[5] = bovine striatal membranes, fluorescence, 90 min, room temperature

T1 sequence (E1BKU0 1-401): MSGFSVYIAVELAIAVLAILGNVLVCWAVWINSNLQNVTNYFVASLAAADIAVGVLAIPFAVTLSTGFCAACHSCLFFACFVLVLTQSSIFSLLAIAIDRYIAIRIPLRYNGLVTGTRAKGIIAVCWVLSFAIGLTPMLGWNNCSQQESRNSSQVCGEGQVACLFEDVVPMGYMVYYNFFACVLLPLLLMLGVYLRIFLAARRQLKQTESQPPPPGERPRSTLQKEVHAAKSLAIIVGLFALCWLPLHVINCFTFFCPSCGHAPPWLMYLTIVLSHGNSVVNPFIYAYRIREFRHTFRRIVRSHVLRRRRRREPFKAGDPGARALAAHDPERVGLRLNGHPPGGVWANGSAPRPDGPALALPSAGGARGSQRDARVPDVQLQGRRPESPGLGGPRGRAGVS
T2 sequence (E1BKU0 1-401): as above

| Compound | specific binding and A2 receptor pharmacology [1] | Kd ([2]; bovine brain striatum) [µM] | degree of specific binding ([2]; striatal A2-adenosine receptors, bovine brain) | affinity at A2-adenosine receptors (A2-adenosine receptors) | saturability of binding (adenosine A2 receptors; bovine striatal membranes, 16-256 nM) | Bmax (adenosine A2 receptors; [5]) [pmol/mg protein] | Kd (adenosine A2 receptors; [5]) [µM] | time to binding equilibrium (adenosine A2 receptors; bovine striatum, room temperature, FITC-APEC 50 nM) [min] | Ki (A2 adenosine receptors [3]) [µM] | Ki (A2 adenosine receptors [4]) [µM] |
| --- | --- | --- | --- | --- | --- | --- | --- | --- | --- | --- |
| CCNC(=O)[C@H]1O[C@@H](n2cnc3c(N)nc(NCCc4ccc(CCC(=O)NCCNC(=O)Cc5ccc(N)c([125I])c5)cc4)nc32)[C@H](O)[C@@H]1O [^125 I-PAPA-APEC] | display specific binding and the appropriate A2 receptor pharmacology | 0.0014 | 60-80% |  |  |  |  |  |  |  |
| CCNC(=O)[C@H]1O[C@@H](n2cnc3c(N)nc(NCCc4ccc(CCC(=O)NCCNC(=S)Nc5ccc(-c6c7ccc(=O)cc-7oc7cc(O)ccc67)c(C(=O)O)c5)cc4)nc32)[C@H](O)[C@@H]1O [Compound 18] |  |  |  | high affinity | saturable | 2.26 | 0.0546 | ≤ 90 | 0.0598 ± 0.028 | 0.0598 ± 0.028 |
